Assay results published in PubChem BioAssay (NCI).
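1) Cells in 96-well plates. 2) Compound, 48 h, 5 concentrations. 3) Linear interpolation between surrounding doses. 4) Unreached endpoint = highest concentration. GI50 is the concentration that inhibits growth by half. TGI marks complete inhibition of growth.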

Legend:
Experiment in all cases: NCI tumour cell line growth inhibition, 48 h
[1] = system: 786-0 renal
[2] = system: A498 renal
[3] = system: CAKI-1 renal
[4] = system: DU-145 prostate
[5] = system: HCT-15 colon
[6] = system: IGROV1 ovarian
[7] = system: NCI-H460 lung
[8] = system: OVCAR-3 ovarian
[9] = system: PC-3 prostate
[10] = system: SNB-19 CNS

Work on `Cc1sc2c(c1C)C(c1ccc(Cl)cc1)=N[C@@H](CC(=O)Nc1ccc(O)cc1)c1nnc(C)n1-2` yielded a GI50 [1] of 0.837 µM, a TGI [1] of 24.8 µM and a GI50 [2] of 0.204 µM. It also gave a TGI [2] of 2.48 µM, a GI50 [3] of 0.0946 µM and a TGI [3] of 16.2 µM. It also gave a GI50 [4] of 14.7 µM, a TGI [4] of 42.8 µM and a GI50 [5] of 1.46 µM. It also gave a TGI [5] of 14.9 µM, a GI50 [6] of 2.5 µM and a TGI [6] of 39.9 µM. It also gave a GI50 [7] of 2.95 µM, a TGI [7] of 27.4 µM and a GI50 [8] of 0.888 µM. The TGI [8] was 18.7 µM, the GI50 [9] was 1.11 µM and the TGI [9] was 23.1 µM. For the same molecule, the GI50 [10] was 0.721 µM and the TGI [10] was 31.3 µM.

With `CC(C)c1ccc(O)c(O)c(=O)c1` (tested in a mixture with another compound) the TGI [1] was > 100 µM, the TGI [2] was 25.2 µM and the TGI [3] was > 52.2 µM. For the same molecule, the TGI [4] was 33.7 µM, the TGI [5] was > 100 µM and the TGI [6] was > 54.9 µM. The TGI [7] was 0.899 µM, the TGI [8] was > 100 µM and the TGI [9] was 15.6 µM. For the same molecule, the TGI [10] was > 100 µM.

With `CC1(C)CC(O)CCCCCCOc2c(CN)cccc2NC(=O)c2nc(cnc2N)-c2ccc(cc2)S1(=O)=O` (stereo not given) the GI50 [1] was 0.0278 µM, the TGI [1] was 1.97 µM and the GI50 [2] was 0.0151 µM. For the same molecule, the TGI [2] was 0.84 µM, the GI50 [3] was 1.15 µM and the TGI [3] was 2.6 µM. The GI50 [4] was 0.0359 µM, the TGI [4] was 2.07 µM and the GI50 [5] was 0.263 µM. It also gave a TGI [5] of 2.56 µM, a GI50 [6] of 0.148 µM and a TGI [6] of 1.48 µM. The GI50 [7] was < 0.0192 µM, the TGI [7] was 2.31 µM and the GI50 [8] was 0.183 µM. It also gave a TGI [8] of 3.34 µM, a GI50 [9] of 0.543 µM and a TGI [9] of 3.67 µM. For the same molecule, the GI50 [10] was 1.66 µM and the TGI [10] was 4.46 µM.

`O=C1c2c(O)cccc2C(C(=O)CCCC(=O)C2c3cccc(O)c3C(=O)c3c(O)cccc32)c2cccc(O)c21` showed a TGI [1] of 9.72 µM, a TGI [2] of 3.66 µM and a TGI [3] of 4.45 µM. The TGI [4] was 2.02 µM, the TGI [5] was 1.38 µM and the TGI [6] was 2.41 µM. The TGI [7] was 0.661 µM, the TGI [8] was 0.798 µM and the TGI [9] was 0.467 µM. For the same molecule, the TGI [10] was 4.12 µM.

In the case of `C#CCOc1cccc(Nc2ncnc3c2ncn3C2CCN(C(=O)CCl)C2)c1` (stereo not given), the GI50 [1] is reported as 18.9 µM, the TGI [1] is reported as 36.8 µM and the GI50 [2] is reported as > 100 µM. For the same molecule, the TGI [2] was > 100 µM, the GI50 [3] was 16.8 µM and the TGI [3] was 30.7 µM. The GI50 [4] was 19.8 µM, the TGI [4] was 37.5 µM and the GI50 [5] was 16.5 µM. The TGI [5] was 39.6 µM, the GI50 [6] was 16.4 µM and the TGI [6] was 36.7 µM. For the same molecule, the GI50 [7] was 43.2 µM, the TGI [7] was > 100 µM and the GI50 [8] was 17.2 µM. For the same molecule, the TGI [8] was 31.4 µM, the GI50 [9] was 22.6 µM and the TGI [9] was 53 µM. For the same molecule, the GI50 [10] was 35.1 µM and the TGI [10] was > 100 µM.

With `C=C(C)C1CCC2(CO)C(O)CC3(C)C(CCC4C5(C)CCC(O)C(C)(C)C5CCC43C)C12` (stereo not given) the TGI [1] was > 100 µM, the TGI [2] was 31.9 µM and the TGI [3] was > 100 µM. The TGI [4] was > 100 µM, the TGI [5] was 88 µM and the TGI [6] was 30 µM. For the same molecule, the TGI [7] was 64.3 µM, the TGI [8] was 29.2 µM and the TGI [9] was 60.3 µM. The TGI [10] was 84.1 µM.

`CCCCCC/C=C\CCCCCCCCCc1c(O)c(OC)cc(O)c1CN(C)C` showed a TGI [1] of 3.26 µM, a TGI [2] of 33.4 µM and a TGI [3] of 26.9 µM. It also gave a TGI [4] of 36 µM, a TGI [5] of 10.8 µM and a TGI [6] of 11 µM. It also gave a TGI [7] of 15.2 µM, a TGI [8] of 19 µM and a TGI [9] of 14.5 µM. The TGI [10] was 26.5 µM.
